Source: patent publication US20140342043A1, “Rebaudioside Sweetener Compositions and Food Products Sweetened with Same” (PepsiCo, Inc., priority 2013, published 2014)
Residues, ends and D or L forms follow the SMILES beside them.

How the values were obtained:
[1] = Taste comparison of rebaudioside M with other potent sweeteners in beverages; assay type: in vivo
[2] = tested on: 14 expertly trained panelists; assay: Sensory studies of sweetness with acidified water samples; assay type: in vivo, human; settings: for Sweetness (score): acidified water, Aspartame 400 ppm, scale 0 to 15, 15 being the sweetest
Method: Sensory studies with two sets of acidified water samples were performed and are described below, where Set 1: HFCS-55 11.7%; Aspartame 400 ppm, and rebaudioside M 400 ppm; and Set 2: Aspartame 400 ppm, Rebaudioside M 400 ppm and Rebaudioside D 400 ppm. The sensory studies were conducted by 14 expertly trained panelists with two evaluations performed for each set. The scale for scoring was 0 to 15, with 15 being the sweetest. The letters shown in Table 2 and Table 3, along with the numerical sweetness values will be understood by those skilled in the art to designate whether or not a statistically significant difference in taste was found. Thus, it can be seen in Table 1 that for Set 1 a statistically significant difference was found between the three sweeteners. It can be seen in Table 2 that for Set 2 a statistically significant difference in sweetness was found for rebaudioside M versus the other two sweeteners. More generally, it can be seen that for both Set 1 and Set 2, rebaudioside M had noticeably higher sweetness values.

[3] = Differential scanning calorimetry (FIG. 4); assay type: physicochemical; settings: second DSC run showing little change
Source text: FIG. 4 is a differential scanning calorimetry graph for rebaudioside M.

[4] = Solubility in cola syrup preparation; assay type: physicochemical; settings: cola syrup for 1-plus-5 throw
Method: Samples of finished ready-to-drink cola beverage were prepared for each of three different formulations. The formulations were identical except that syrup variant 1 used rebaudioside A as the sweetener, syrup variant 2 used rebaudioside D as the sweetener, and syrup variant 3 used rebaudioside M as the sweetener in accordance with one aspect of the invention of the present disclosure. For the ready-to-drink cola beverage samples of formulation variant 1 and formulation variant 3, 2.0 liters of syrup were prepared suitable for use in a 1-plus-5 throw with carbonated water to make the corresponding ready-to-drink cola beverage samples. To prepare variant 1 (comprising rebaudioside A as the sweetener) and variant 3 (comprising rebaudioside M as the sweetener), the ingredients listed in Table 4, below, were added (in the sequence listed) to approximately 1.0-1.5 liter purified water with stirring. Purified water was then added until the syrup was 2 liters in volume. Then 50 mL portions of the syrup were added respectively to 250 mL portions of carbonated water, i.e., a “1-plus-5 throw” to obtain samples of finished ready-to-drink cola beverage corresponding to each of the two syrup variants. […] Specifically, the unsweetened cola beverage samples were made first in sample bottles. Then, to each bottle 400 ppm of Reb D was carefully added in. […]

[5] = Table 2, Rebaudioside D 400 ppm, Rebaudioside M 400 ppm
[6] = Table 3, HFCS-55 11.7%, rebaudioside M 400 ppm

Structure (SMILES) | Sweetness intensity relative to Reb A ([1]; in vivo) | Bitterness relative to the same concentration of rebaudioside A ([1]; otherwise identical acidic aqueous carbonated beverages) | Sweetness (score) [2, 5] | Sweetness (score) [2, 6] | Sweetness relative to other sweeteners ([2]; conclusion from Table 2 and Table 3, 400 ppm in acidified water) | Thermo-stability [3] | Solubility [4]
C=C1C[C@@]23CC[C@H]4[C@@](C)(CCC[C@@]4(C)C(=O)O[C@@H]4O[C@H](CO)[C@@H](O)[C@H](O[C@@H]5O[C@H](CO)[C@@H](O)[C@H](O)[C@H]5O)[C@H]4O[C@@H]4O[C@H](CO)[C@@H](O)[C@H](O)[C@H]4O)[C@@H]2CC[C@]1(O[C@@H]1O[C@H](CO)[C@@H](O)[C@H](O[C@@H]2O[C@H](CO)[C@@H](O)[C@H](O)[C@H]2O)[C@H]1O[C@@H]1O[C@H](CO)[C@@H](O)[C@H](O)[C@H]1O)C3 [Rebaudioside M, rebaudioside M] | significantly higher than Reb A | significantly lower bitterness | 7.58 | 8.00 | significantly sweeter than aspartame and rebaudioside D | good thermo-stability | –
C=C1C[C@@]23CC[C@H]4[C@@](C)(CCC[C@@]4(C)C(=O)O[C@@H]4O[C@H](CO)[C@@H](O)[C@H](O)[C@H]4O[C@@H]4O[C@H](CO)[C@@H](O)[C@H](O)[C@H]4O)[C@@H]2CC[C@]1(O[C@@H]1O[C@H](CO)[C@@H](O)[C@H](O[C@@H]2O[C@H](CO)[C@@H](O)[C@H](O)[C@H]2O)[C@H]1O[C@@H]1O[C@H](CO)[C@@H](O)[C@H](O)[C@H]1O)C3 [Rebaudioside D, rebaudioside D, reference compound] | – | – | 6.97 | – | – | – | poor solubility
COC(=O)[C@H](Cc1ccccc1)NC(=O)[C@@H](N)CC(=O)O [Aspartame, reference compound] (H-Asp-Phe-OMe) | – | – | 6.39 | 6.30 | – | – | –
